Results from EP0503710A2, “Flunarizine containing anti-neoplastic compositions” (JANSSEN PHARMACEUTICA N.V., priority 1991, dated 1992).

Assays:
[1] = system: P388/ADR (adriamycine resistant cell line) murine leukemia; assay: Subrenal capsule implant of P388/ADR tumour fragments in mice, change in tumor size at day 7; type: in vivo; details: P388/ADR implants under renal capsule, monotherapy, daily intraperitoneal day 1 until day 6
Text: (§1) The potential of flunarizine as a potent enhancer of adriamycine (ADR) cytotoxicity in the murine sarcoma MO4 (semi-resistant cell line) "in vitro" and "in vivo" and its reversed adriamycine resistance in the P388/ADR (adriamycine resistant cell line) murine leukemia "in vivo"can be demostrated by the following procedure.
(§2) Fragments of subcutaneously grown tumours were inserted under the renal capsule in mice and their initial size measured under a microscope. At day 7, the mice were killed and the final size of the implants determined. The change in tumor size was expressed as a percentage of the initial size, the latter considered to be 100%. Daily intraperitoneal treatment with ADR alone or in combination with flunarizine which was formulated in hydroxypropyl-β-cyclodextrin was installed from day 1 until day 6. Control animals received the vehicle hydroxypropyl-ß-cyclodextrin.

[2] = system: murine sarcoma MO4 (semi-resistant cell line); assay: Subrenal capsule implant of MO4 tumour fragments in mice, change in tumor size at day 7; type: in vivo; details: daily intraperitoneal day 1 until day 6
Text: as §1, §2

SMILES	effect on tumor growth [1]	effect on tumor growth ([2]; MO4-tumor, adriamycine alone, dosages lower than 2.5 mg/kg)	growth reduction ([2]; MO4-tumor, adriamycine alone, half the maximal tolerated dose 2.5 mg/kg) [%]	effect on tumor growth ([2]; MO4 implants under renal capsule, flunarizine monotherapy in hydroxypropyl-β-cyclodextrin, size at day 7)
COc1cccc2c1C(=O)c1c(O)c3c(c(O)c1C2=O)C[C@@](O)(C(=O)CO)C[C@@H]3O[C@H]1C[C@H](N)[C@H](O)[C@H](C)O1 [adriamycine]	inactive	no effect	25	–
Fc1ccc(C(c2ccc(F)cc2)N2CCN(CC=Cc3ccccc3)CC2)cc1 [Flunarizine, 1-[bis(4-fluorophenyl)methyl]-4-(3-phenyl-2-propenyl)piperazine]	no effect	–	–	no effect
